Here are results for one compound from patent US20060235061A1, “Methods of using benzothiophenone derivatives to treat cancer or inflammation” (QLT,Inc., priority 2002, published 2006).

This experiment concerns the target T1, Caspase-3 (Homo sapiens, UniProt P42574).
T1 construct: purchased Calbiochem
T1 sequence (P42574 29-175 limits assumed): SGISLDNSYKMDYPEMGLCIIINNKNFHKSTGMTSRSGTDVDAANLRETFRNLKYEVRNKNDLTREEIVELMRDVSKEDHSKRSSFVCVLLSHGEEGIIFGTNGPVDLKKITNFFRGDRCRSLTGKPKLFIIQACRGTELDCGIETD
T1 sequence (P42574 176-277 limits assumed): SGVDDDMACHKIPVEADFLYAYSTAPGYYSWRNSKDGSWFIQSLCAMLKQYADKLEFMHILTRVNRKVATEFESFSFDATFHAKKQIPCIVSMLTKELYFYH
The experiment in a line: Caspase-3 selectivity assay (Calbiochem kit, colorimetric). Type of experiment: biochemical. The source says:
This is a selectivity assay providing information about the specificity of the compounds. A cysteine residue located within the active pocket of the catalytic domain that is conserved between the […] like caspase-3 and the protein tyrosine phosphatases like PTPN12 has a thiol group within this cysteine amino acid that may interact with specific R-groups with inhibiting compounds with in vitro enzyme inhibiting activity. Also, caspase inhibition can prevent apoptosis from occurring in some cases via the caspase cascade. As the potential for cross-inhibitory activity and nonselectivity exists, the caspase-3 assay is performed on PTN12 inhibitors.
The Calbiochem caspase-3 assay kit was utilized according to package insert instructions. The assay is useful for screening for caspase-3 inhibitors measuring the protease activity of caspase-3 and other caspase-3-like activities. Cleavage is monitored colorimetrically by measuring the increase in absorbance at 405 nm. Assays were performed in a 96-well microtiter plate format.

In the case of `O=C1C(=CC=CC=C2Sc3ccccc3N2CCCS(=O)(=O)O)Sc2ccccc21` [3-{2-[4-(3-Oxo-3H-benzo[b]thiophen-2-ylidene)-but-2-enylidene]-benzothiazol-3-yl}-propane-1-sulfonic acid], at 10 µM the inhibition (@ 10 μM) was 3%. For the same compound, the inhibition (usually the relative decrease from the control value, in per cent) at 100 µM (@ 100 μM) was determined as 27%.
